Assay [1] addresses T1, human serum albumin (HSA) (Homo sapiens, UniProt P02768).
T1 construct: gene ALB; full HSA; recombinant domain III (DIII) also measured
Put plainly: BLI; also HRMS ([…] covalent binding) and SDS-PAGE.

Assay [2] concerns the target T1, human serum albumin (HSA). As to the kind of experiment: BLI; also HRMS, SDS-PAGE and proteomics of the covalent adduct. It counts as binding.
The target in assay [3] is T1, human serum albumin (HSA). Put plainly: BLI; also HRMS ([…] covalent binding) and SDS-PAGE. This is another data set of the same source.

T1 sequence (P02768 25-609): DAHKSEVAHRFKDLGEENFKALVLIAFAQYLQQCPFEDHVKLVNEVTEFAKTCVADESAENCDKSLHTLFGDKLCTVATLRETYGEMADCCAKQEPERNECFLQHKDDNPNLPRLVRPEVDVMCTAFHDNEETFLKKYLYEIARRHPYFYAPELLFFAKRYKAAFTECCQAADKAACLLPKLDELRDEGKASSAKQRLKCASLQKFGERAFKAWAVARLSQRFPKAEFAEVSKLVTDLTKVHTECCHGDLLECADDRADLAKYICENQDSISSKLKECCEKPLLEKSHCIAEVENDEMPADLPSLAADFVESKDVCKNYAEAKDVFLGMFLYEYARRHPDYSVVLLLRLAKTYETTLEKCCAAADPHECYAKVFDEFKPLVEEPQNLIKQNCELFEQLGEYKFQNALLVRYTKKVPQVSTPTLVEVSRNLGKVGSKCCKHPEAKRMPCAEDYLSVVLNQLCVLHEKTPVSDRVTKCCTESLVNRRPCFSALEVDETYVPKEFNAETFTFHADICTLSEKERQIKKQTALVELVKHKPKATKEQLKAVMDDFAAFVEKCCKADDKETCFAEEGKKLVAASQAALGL

Turning to `CCn1/c(=C/C=C2\CCCC(/C=C/C3=[N+](CC)c4cccc5cccc3c45)=C2Cl)c2cccc3cccc1c32` [Et-1080], the Kd in assay [1] was around 14.5 nM. `O=C(O)CCCCCn1/c(=C/C=C2\CCCC(/C=C/C3=[N+](CCCCCC(=O)O)c4cccc5cccc3c45)=C2Cl)c2cccc3cccc1c32` [CO-1080] registered a Kd in assay [2] of around 2.13 nM. Molecule `O=S(=O)(O)CCCCn1/c(=C/C=C2\CCCC(/C=C/C3=[N+](CCCCS(=O)(=O)O)c4cccc5cccc3c45)=C2Cl)c2cccc3cccc1c32` [FD-1080] returned a Kd in assay [3] of around 82.6 nM.

(Values after paper PMC10987503, “Biomimetic NIR-II fluorescent proteins created from chemogenic protein-seeking dyes for multicolor deep-tissue bioimaging” (Nature Communications, 2024).)
